According to ChEMBL document CHEMBL1201862, “PubChem BioAssay data set” (2004):
Several values for one entry are separate records, joined by “and”; a condition that tells them apart may be missing. Equal entries are not always repeated. Activity calls are given as the source filed them.

Experiments:
[1] = A cytotoxicity screen of small molecule inhibitors of the PhoP region in Salmonella typhi identified in the primary screen. [Related pubchem assays: 1850, 1864, 1985 ]; assay type: functional
[2] = molecular target: T1, Hexokinase (Trypanosoma brucei, UniProt Q38C41); experiment: Confirmation assay for inhibitors of Trypanosoma brucei hexokinase 1-Analogue-first series. [Related pubchem assays (depositor defined):AID1430, AID1632, AID2516, AID2560, AID2579, AID2600, AID449725, AID492951]; assay type: functional
T1 sequence (Q38C41 whole entry): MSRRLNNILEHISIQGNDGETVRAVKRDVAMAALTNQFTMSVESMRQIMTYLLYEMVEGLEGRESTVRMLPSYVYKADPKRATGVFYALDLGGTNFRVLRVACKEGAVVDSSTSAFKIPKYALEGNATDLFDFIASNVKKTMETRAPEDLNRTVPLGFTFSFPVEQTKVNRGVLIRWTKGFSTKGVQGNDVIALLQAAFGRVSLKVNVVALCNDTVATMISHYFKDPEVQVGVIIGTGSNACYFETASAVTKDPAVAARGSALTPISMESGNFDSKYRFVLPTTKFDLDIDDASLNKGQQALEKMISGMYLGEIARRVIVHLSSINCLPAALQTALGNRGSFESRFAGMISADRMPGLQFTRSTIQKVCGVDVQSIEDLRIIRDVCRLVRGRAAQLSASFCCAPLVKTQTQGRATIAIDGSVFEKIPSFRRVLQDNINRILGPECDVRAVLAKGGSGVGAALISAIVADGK

[3] = molecular target: Glucose-6-phosphate 1-dehydrogenase (Homo sapiens, UniProt P11413); experiment: inhibition of Homo sapiens G6PD, dose series – biochemical, fluorescence, selectivity assay for P. falciparum G6PD inhibitor project, dose response (AID 504792); assay type: functional
[4] = test system: Streptococcus; experiment: GAS UMAA2166 growth inhibition – luminescence, BacTiterGlo, counter-screen for streptokinase expression inhibitor project, dose response (AID 1915); assay type: functional, organism-based;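 further: potency for reduction of bacterial viability or growth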
[5] = Trypanosoma cruzi growth suppression in host cells – NIH3T3 host cells, beta-gal luminescence, confirmation (AID 2044); assay type: functional, cell-based;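 further: intracellular parasites grown in NIH/3T3 mouse fibroblasts as host cells; luminescent beta-galactosidase reporter signal from transgenic T. cruzi replicating inside host cells; inhibitors lower the luminescence signal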
[6] = test system: INS1; experiment: INS-1E survival protection against cytokine death – cell-based, luminescence, retest, dose response (AID 449756); assay type: functional; conditions: Rattus norvegicus, INS1;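 further: cell death triggered by IL-1 beta plus TNF-alpha plus IFN-gamma mixture; protective hits raise ATP signal compared with cytokine alone wells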
[7] = Vero E6 cell cytotoxicity, dose response, cytotoxicity control for non-replicating M. tuberculosis project, secondary assay (AID 492998); assay type: functional, VeroE6; conditions: Vero C1008
[8] = NIH3T3 cell viability loss – ATP luminescence, mouse fibroblasts, counter-screen, dose response (AID 2010); assay type: functional, cell-based;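 further: cells exposed to compound for about 90 hours before reading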
[9] = molecular target: T2, Streptokinase A (Streptococcus pyogenes serotype M1, UniProt P10520); experiment: viability-normalized secreted streptokinase activity reduction – plasminogen activation absorbance, OD405, dose response (AID 1914); assay type: functional, Streptococcus pyogenes M1 GAS;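 further: secreted streptokinase activity via plasminogen activation per viability signal from cell pellet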
T2 sequence (P10520 whole entry): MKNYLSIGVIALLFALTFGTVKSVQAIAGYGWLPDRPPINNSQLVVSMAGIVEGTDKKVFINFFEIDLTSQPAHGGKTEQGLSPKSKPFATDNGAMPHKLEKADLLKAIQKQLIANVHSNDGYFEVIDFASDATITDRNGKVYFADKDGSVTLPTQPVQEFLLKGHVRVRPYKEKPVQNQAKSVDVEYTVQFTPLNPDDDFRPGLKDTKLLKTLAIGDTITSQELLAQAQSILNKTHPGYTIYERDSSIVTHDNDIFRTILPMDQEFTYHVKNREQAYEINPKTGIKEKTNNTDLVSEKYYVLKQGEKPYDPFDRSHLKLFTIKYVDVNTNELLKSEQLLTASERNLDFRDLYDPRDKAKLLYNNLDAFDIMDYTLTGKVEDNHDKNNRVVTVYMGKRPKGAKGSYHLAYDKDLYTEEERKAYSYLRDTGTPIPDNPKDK

[10] = cells; assay type: functional
[11] = test system: Streptococcus sp. 'group A'; experiment: Streptococcus pyogenes SK(-)GAS viability under kanamycin – luminescence, BacTiterGlo, confirmation, counter-screen for streptokinase expression inhibitor project, dose response (AID 1900); assay type: functional, organism-based
[12] = THP-1 cell cytotoxicity, dose response, cytotoxicity control for non-replicating M. tuberculosis project (AID 489025); assay type: functional
[13] = HepG2 cell cytotoxicity, dose response, cytotoxicity control for non-replicating M. tuberculosis project (AID 489018); assay type: functional; conditions: Mycobacterium tuberculosis
[14] = Luminescence Cell-Based Dose Confirmation HTS to Identify Inhibitors of Polyadenylation.; assay type: functional
[15] = molecular target: DNA dC->dU-editing enzyme APOBEC-3G (Homo sapiens, UniProt Q9HC16); experiment: Dose Response confirmation of small molecule APOBEC3G DNA Deaminase Inhibitors via a fluorescence-based single-stranded DNA deaminase assay. [Related pubchem assays (depositor defined):AID493012, AID493028]; assay type: functional
[16] = A Cell Based Secondary Assay To Explore Cytotoxicity of Compounds that Sensitize Mycobacterium Tuberculosis to Beta-Lactam Antibiotics.; assay type: functional
[17] = molecular target: Induced myeloid leukemia cell differentiation protein Mcl-1 (Homo sapiens, UniProt Q07820); assay type: functional
[18] = molecular target: T3, Aspartyl aminopeptidase (Plasmodium falciparum 3D7, UniProt Q8I2J3)
T3 sequence (Q8I2J3 whole entry): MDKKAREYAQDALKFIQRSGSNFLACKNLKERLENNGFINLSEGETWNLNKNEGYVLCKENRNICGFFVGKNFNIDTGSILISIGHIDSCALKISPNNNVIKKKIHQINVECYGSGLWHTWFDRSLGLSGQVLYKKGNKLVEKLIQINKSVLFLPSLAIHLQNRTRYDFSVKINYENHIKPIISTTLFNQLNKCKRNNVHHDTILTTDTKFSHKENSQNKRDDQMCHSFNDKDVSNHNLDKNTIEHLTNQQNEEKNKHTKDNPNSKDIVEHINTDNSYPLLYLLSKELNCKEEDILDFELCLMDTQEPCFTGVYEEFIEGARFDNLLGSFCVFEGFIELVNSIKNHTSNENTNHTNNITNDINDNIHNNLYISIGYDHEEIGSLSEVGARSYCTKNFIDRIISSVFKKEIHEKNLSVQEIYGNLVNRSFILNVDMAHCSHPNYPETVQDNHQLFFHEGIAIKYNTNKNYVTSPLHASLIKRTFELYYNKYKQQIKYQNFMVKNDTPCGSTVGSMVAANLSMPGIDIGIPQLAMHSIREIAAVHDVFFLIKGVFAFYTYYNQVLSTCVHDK

[19] = molecular target: Large T antigen (Simian virus 40, UniProt P03070); assay type: functional, Betapolyomavirus macacae;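 further: Confirmatory-stage PubChem screen for compounds that inhibit SV40 T antigen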
[20] = molecular target: Procathepsin L (Homo sapiens, UniProt P07711)
[21] = molecular target: FAD-linked sulfhydryl oxidase ALR (Homo sapiens, UniProt P55789); experiment: ALR-catalysed DTT oxidation blockers – biochemical, H2O2 detection, luminescence, cherry-pick, dose response (AID 493248)
Sequence of FAD-linked sulfhydryl oxidase ALR (P55789 whole entry): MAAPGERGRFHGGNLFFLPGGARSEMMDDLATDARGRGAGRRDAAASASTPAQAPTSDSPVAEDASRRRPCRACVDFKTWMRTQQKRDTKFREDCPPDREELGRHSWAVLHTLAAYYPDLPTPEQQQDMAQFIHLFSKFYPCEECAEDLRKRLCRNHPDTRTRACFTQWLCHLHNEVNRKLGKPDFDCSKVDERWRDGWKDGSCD

Sequence of DNA dC->dU-editing enzyme APOBEC-3G (Q9HC16 whole entry): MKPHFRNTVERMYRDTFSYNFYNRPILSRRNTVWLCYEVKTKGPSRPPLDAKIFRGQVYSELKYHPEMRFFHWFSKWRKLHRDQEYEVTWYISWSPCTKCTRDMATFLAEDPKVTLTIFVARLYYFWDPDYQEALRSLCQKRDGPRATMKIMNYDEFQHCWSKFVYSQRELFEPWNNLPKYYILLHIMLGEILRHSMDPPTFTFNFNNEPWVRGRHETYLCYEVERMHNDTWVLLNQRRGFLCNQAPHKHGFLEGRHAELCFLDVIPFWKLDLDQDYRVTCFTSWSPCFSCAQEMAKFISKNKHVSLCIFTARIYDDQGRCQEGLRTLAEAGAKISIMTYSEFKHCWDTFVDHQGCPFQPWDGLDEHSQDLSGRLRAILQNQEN
Sequence of Procathepsin L (P07711 whole entry): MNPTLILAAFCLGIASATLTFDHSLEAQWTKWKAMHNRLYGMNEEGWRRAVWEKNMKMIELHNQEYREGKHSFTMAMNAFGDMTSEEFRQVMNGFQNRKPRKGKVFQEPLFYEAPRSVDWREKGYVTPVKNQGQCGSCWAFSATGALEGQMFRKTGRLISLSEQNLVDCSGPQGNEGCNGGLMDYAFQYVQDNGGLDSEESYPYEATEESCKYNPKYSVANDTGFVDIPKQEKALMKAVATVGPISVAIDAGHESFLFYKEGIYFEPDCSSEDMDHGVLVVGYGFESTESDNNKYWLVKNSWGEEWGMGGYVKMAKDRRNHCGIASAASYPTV
Sequence of Large T antigen (P03070 whole entry): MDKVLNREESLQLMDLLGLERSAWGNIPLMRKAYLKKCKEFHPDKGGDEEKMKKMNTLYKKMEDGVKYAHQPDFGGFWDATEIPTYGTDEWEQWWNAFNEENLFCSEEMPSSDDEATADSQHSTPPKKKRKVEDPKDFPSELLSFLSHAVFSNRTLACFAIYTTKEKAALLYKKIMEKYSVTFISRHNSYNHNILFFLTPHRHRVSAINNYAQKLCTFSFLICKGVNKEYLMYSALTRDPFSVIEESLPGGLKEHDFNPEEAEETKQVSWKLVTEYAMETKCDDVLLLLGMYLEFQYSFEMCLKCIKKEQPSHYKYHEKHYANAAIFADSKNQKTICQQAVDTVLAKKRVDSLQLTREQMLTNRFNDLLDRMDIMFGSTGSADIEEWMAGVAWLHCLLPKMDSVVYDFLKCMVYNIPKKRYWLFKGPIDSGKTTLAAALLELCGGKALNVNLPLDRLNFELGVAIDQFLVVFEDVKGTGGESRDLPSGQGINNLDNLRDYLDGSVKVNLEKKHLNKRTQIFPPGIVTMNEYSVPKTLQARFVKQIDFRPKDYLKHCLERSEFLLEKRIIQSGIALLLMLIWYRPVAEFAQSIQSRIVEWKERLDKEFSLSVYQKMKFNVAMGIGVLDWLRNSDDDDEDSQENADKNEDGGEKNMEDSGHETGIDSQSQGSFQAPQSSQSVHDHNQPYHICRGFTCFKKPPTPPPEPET
Sequence of Glucose-6-phosphate 1-dehydrogenase (P11413 whole entry): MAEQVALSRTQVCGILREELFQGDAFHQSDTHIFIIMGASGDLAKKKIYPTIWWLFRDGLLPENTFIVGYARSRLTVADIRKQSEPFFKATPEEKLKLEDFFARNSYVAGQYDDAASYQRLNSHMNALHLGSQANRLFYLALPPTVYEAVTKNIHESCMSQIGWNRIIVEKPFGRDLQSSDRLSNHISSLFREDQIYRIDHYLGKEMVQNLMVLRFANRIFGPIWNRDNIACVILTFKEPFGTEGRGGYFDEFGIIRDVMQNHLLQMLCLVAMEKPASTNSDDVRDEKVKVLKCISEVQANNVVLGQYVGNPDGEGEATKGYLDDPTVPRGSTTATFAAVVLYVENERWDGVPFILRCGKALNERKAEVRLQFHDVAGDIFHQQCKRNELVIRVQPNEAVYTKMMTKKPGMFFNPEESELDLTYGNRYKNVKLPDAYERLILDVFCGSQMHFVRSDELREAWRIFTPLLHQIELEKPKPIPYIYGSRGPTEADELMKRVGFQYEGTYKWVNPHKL
Sequence of Induced myeloid leukemia cell differentiation protein Mcl-1 (Q07820 whole entry): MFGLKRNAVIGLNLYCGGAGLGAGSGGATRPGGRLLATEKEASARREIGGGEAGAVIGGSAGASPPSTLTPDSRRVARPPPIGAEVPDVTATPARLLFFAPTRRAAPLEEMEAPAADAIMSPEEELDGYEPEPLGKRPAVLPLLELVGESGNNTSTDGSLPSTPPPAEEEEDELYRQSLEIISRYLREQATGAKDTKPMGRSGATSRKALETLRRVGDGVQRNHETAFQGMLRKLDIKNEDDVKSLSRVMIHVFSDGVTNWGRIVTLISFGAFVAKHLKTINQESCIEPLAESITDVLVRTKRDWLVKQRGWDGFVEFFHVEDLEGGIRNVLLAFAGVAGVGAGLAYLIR

## O=C1CC(c2ccc(Cl)cc2)N2CCNC2=C1C(=O)Nc1ccccc1 (centres undefined)
[1]
  EC50: > 50 µM (active)

## COc1ccc(C(=O)Nc2cc(Cl)ccc2C(=O)O)cc1
[2]
  IC50: 11.2 µM (active) and 8.23 µM (active)
[3]
  IC50: > 80 µM (inactive)

## CC(C)(C)c1cc(C(=O)N/N=C/c2ccc([N+](=O)[O-])s2)[nH]n1
[4]
  EC50: 15.8 µM (active)
[5]
  EC50: 0.15 µM (active)
[6]
  AC50: 6.87 µM (active)
[7]
  CC50: 12 µM (active)
[8]
  EC50: > 60 µM (not active)
[9]
  EC50: > 150 µM (not active)
[10]
  IC50: 5.22 µM (active)
[11]
  EC50: 12.3 µM (active)
[12]
  CC50: 18.9 µM (active)
[13]
  CC50: > 20 µM (active)

## O=C(COC(=O)Cc1ccc(S(=O)(=O)N2CCOCC2)s1)Nc1ccc2c(c1)OCO2
[14]
  EC50: > 120 µM (not active)

## CC(NC(=O)c1ccc(Br)cc1)c1ccccc1 (centres undefined)
[14]
  EC50: > 120 µM (not active)

## S=C(c1ccc(-c2ccccc2Cl)o1)N1CCOCC1
[15]
  IC50: 44.6 µM (active)

## Cc1ccc(OCC(=O)Nc2ccc3c4c(cccc24)CC3)c(C)c1
[16]
  CC50: > 40 µM (active)

## COCCCN=C(S)NN=C(S)Nc1ccccc1
[15]
  IC50: 16.4 µM (active)

## CCN1CCN(C(=O)c2cc3cc(Cl)ccc3[nH]2)CC1
[1]
  EC50: > 50 µM (active)

## O=C(Nc1cc(Cl)ccc1C(=O)O)c1ccc2c(c1)CCC2
[2]
  IC50: 4.83 µM (active)

## O=C(NNC(=S)NC1CC2C=CC1C2)c1cccnc1 (centres undefined)
[14]
  EC50: > 120 µM (not active)

## COc1ccc([N+](=O)[O-])cc1C1NN=C(c2ccccc2O)S1 (centres undefined)
[16]
  CC50: > 40 µM (active)

## O=[N+]([O-])c1cc([N+](=O)[O-])c2cccnc2c1Oc1ccccc1O
[17]
  IC50: 2.82 µM (active)
[1]
  EC50: > 50 µM (active)
[18]
  IC50: 3.27 µM (active)
[19]
  IC50: 7.81 µM (active)
[20]
  IC50: > 59.6 µM (not active)

## C=CCn1c(S)nnc1-c1cccc([N+](=O)[O-])c1
[15]
  IC50: 8.72 µM (active)
[21]
  AC50: 9.06 µM (active)
